Consider one compound from publication PMC10636171 (Cell Death & Disease, 2023).

One data set addresses T1, AXL (Homo sapiens, UniProt P30530).
T1 construct: purchased Invitrogen (c-Met, TRKA, TRKB, TRKC)
The data set can be described thus: HTRF/ADP-Glo kinase selectivity panel. It counts as biochemical. To be noted: 500 nM, read-out: 1D228(%inhibition)@500nM. As to the method: (§1) The compound was serial diluted from 10 mM stock in DMSO, dilute the test compound to 0.1 mM (200 times the specified test concentration). 2 × ATP & Substrate solution and 2 × kinase & Metal solution were prepared using assay buffer; Transfer 25 nL compound to 384 assay plate by Echo 655; After centrifugation, add 2.5 μL 2 × kinase/metal ion solution 384 assay plate, and incubate at 25 °C for 10 min. 2 × XL665 & Antibody solution were prepared with detection buffer; 5 μL of Kinase Detection Reagent was added to the well, and incubated for 60 min at 25 °C; The fluorescence signals of 620 nm (Cryptate) and 665 nm (XL665) were read by microtiter plate reader; […]

In the next data set the target is T2, BTK (Homo sapiens, UniProt Q06187).
T2 construct: purchased Invitrogen (c-Met, TRKA, TRKB, TRKC)
T2 sequence (Q06187 whole entry): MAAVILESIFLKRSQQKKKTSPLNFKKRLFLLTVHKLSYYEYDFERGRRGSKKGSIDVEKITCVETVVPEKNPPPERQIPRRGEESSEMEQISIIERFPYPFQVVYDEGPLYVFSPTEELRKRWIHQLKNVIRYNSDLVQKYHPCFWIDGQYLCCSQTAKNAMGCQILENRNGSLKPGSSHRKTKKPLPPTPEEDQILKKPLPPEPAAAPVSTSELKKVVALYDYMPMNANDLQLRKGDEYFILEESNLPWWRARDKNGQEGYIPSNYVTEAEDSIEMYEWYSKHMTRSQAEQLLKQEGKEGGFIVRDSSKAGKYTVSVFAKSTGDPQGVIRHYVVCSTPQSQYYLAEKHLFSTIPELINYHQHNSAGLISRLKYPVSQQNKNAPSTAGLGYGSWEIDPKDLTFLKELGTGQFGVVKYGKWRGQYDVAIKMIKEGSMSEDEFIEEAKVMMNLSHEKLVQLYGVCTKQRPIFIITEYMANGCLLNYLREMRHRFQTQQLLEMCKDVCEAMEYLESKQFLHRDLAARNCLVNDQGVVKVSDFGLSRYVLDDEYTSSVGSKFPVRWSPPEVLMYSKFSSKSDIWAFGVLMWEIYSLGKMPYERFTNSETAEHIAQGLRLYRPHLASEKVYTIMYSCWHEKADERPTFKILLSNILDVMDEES
The data set can be described thus: HTRF/ADP-Glo kinase selectivity panel. The settings on record: 500 nM, read-out: 1D228(%inhibition)@500nM. It counts as biochemical. Here is the method: as §1
For orientation: TR-FRET usually uses a lanthanide donor and a delayed reading to cut background.

A further data set concerns the target T3, EGFR (Homo sapiens, UniProt P00533).
T3 construct: purchased Invitrogen (c-Met, TRKA, TRKB, TRKC)
The data set can be described thus: HTRF/ADP-Glo kinase selectivity panel. It counts as biochemical. The settings on record: 500 nM, read-out: 1D228(%inhibition)@500nM. Here is the method:
as §1

Another data set deals with T4, EPHA5 (Homo sapiens, UniProt P54756).
T4 construct: purchased Invitrogen (c-Met, TRKA, TRKB, TRKC)
The data set can be described thus: HTRF/ADP-Glo kinase selectivity panel. It counts as biochemical. To be noted: 500 nM, read-out: 1D228(%inhibition)@500nM. Here is the method:
as §1

The next data set deals with T5, EPHB2 (Homo sapiens, UniProt P29323).
T5 construct: purchased Invitrogen (c-Met, TRKA, TRKB, TRKC)
The data set can be described thus: HTRF/ADP-Glo kinase selectivity panel. It counts as biochemical. The settings on record: 500 nM, read-out: 1D228(%inhibition)@500nM. Here is the method:
as §1

A further data set addresses T6, EPHB3 (Homo sapiens, UniProt P54753).
T6 construct: purchased Invitrogen (c-Met, TRKA, TRKB, TRKC)
The data set can be described thus: HTRF/ADP-Glo kinase selectivity panel. To be noted: 500 nM, read-out: 1D228(%inhibition)@500nM. It counts as biochemical. As to the method:
as §1

The target in another data set is T7, FAK (Homo sapiens, UniProt Q05397).
T7 construct: purchased Invitrogen (c-Met, TRKA, TRKB, TRKC)
T7 sequence (Q05397 whole entry): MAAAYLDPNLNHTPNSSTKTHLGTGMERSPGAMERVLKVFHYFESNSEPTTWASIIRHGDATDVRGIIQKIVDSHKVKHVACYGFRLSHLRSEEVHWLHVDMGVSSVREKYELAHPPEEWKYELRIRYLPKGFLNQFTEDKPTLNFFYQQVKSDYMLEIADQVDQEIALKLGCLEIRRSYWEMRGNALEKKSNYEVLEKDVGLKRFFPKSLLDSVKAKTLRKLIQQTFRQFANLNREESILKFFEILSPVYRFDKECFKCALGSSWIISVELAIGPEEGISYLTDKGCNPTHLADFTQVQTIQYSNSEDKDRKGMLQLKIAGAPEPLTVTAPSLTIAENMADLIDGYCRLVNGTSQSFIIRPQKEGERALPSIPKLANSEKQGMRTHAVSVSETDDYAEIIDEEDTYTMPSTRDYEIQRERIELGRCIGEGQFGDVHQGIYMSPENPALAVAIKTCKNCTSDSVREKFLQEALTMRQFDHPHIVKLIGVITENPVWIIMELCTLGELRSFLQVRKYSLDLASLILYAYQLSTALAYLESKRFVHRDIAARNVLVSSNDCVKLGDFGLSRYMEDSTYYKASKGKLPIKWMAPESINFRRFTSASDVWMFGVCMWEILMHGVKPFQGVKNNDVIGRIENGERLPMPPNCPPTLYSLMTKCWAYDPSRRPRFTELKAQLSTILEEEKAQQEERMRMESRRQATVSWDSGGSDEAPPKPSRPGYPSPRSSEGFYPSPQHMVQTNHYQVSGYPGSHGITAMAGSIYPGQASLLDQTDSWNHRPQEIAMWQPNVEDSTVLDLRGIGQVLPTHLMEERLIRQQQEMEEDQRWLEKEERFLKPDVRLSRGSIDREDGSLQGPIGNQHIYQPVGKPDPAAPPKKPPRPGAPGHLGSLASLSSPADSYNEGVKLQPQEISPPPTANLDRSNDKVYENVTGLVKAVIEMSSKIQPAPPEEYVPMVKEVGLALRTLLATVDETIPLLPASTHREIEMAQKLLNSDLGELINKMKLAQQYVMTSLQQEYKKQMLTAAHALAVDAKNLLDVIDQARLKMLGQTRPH
The data set can be described thus: HTRF/ADP-Glo kinase selectivity panel. It counts as biochemical. To be noted: 500 nM, read-out: 1D228(%inhibition)@500nM. Here is the method:
as §1

A further data set concerns the target T8, FGFR1 (Homo sapiens, UniProt P11362).
T8 construct: purchased Invitrogen (c-Met, TRKA, TRKB, TRKC)
The data set can be described thus: HTRF/ADP-Glo kinase selectivity panel. To be noted: 500 nM, read-out: 1D228(%inhibition)@500nM. The format is biochemical. As to the method:
as §1

A further data set deals with T9, IRR (Homo sapiens, UniProt P14616).
T9 construct: purchased Invitrogen (c-Met, TRKA, TRKB, TRKC)
T9 sequence (P14616 27-1297): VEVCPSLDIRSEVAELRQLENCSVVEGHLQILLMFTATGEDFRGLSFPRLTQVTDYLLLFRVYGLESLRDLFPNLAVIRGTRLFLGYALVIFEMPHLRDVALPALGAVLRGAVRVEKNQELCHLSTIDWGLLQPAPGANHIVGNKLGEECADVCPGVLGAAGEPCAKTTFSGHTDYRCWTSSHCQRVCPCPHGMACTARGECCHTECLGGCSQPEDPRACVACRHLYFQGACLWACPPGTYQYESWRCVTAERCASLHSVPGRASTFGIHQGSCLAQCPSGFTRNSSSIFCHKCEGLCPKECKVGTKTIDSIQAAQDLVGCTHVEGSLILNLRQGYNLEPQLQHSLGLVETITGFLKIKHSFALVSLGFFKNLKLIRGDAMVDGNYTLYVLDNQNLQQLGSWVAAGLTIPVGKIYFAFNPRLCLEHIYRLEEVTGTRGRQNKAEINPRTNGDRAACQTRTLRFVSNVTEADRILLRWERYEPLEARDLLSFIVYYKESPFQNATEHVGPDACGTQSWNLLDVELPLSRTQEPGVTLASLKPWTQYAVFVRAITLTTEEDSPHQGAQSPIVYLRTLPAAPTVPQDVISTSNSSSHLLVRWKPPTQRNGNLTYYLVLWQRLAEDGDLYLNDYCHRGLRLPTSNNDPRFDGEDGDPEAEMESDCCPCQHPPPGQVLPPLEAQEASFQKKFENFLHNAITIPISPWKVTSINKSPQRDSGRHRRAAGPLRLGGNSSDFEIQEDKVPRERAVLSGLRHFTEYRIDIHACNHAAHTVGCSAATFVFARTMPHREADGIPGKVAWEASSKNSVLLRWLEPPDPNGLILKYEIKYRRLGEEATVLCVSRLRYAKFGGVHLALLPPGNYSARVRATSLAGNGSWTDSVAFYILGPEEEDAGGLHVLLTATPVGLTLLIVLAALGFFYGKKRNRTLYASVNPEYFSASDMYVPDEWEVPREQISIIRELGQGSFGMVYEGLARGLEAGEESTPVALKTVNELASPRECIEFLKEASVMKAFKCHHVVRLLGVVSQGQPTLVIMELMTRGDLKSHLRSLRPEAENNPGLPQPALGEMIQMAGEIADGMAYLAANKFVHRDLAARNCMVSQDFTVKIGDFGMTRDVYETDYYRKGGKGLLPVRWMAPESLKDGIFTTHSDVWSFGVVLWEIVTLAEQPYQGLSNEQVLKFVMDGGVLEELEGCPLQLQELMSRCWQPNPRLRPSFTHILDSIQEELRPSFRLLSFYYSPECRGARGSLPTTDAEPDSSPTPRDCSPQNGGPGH
The data set can be described thus: HTRF/ADP-Glo kinase selectivity panel. The format is biochemical. The settings on record: 500 nM, read-out: 1D228(%inhibition)@500nM. As to the method:
as §1

Another data set has as its target T10, JAK3 (Homo sapiens, UniProt P52333).
T10 construct: purchased Invitrogen (c-Met, TRKA, TRKB, TRKC)
The data set can be described thus: HTRF/ADP-Glo kinase selectivity panel. The format is biochemical. To be noted: 500 nM, read-out: 1D228(%inhibition)@500nM. Here is the method: as §1

In a further data set the target is T11, ROS1 (Homo sapiens, UniProt P08922).
T11 construct: purchased Invitrogen (c-Met, TRKA, TRKB, TRKC)
The data set can be described thus: HTRF/ADP-Glo kinase selectivity panel. It counts as biochemical. The settings on record: 500 nM, read-out: 1D228(%inhibition)@500nM. As to the method:
as §1

The target of the next data set is T12, SYK (Homo sapiens, UniProt P43405).
T12 construct: purchased Invitrogen (c-Met, TRKA, TRKB, TRKC)
The data set can be described thus: HTRF/ADP-Glo kinase selectivity panel. The format is biochemical. To be noted: 500 nM, read-out: 1D228(%inhibition)@500nM. As to the method:
as §1

Another data set has as its target T13, TYRO3 (Homo sapiens, UniProt Q06418).
T13 construct: purchased Invitrogen (c-Met, TRKA, TRKB, TRKC)
The data set can be described thus: HTRF/ADP-Glo kinase selectivity panel. It counts as biochemical. To be noted: 500 nM, read-out: 1D228(%inhibition)@500nM. As to the method:
as §1

The next data set has as its target T14, ZAP70 (Homo sapiens, UniProt P43403).
T14 construct: purchased Invitrogen (c-Met, TRKA, TRKB, TRKC)
The data set can be described thus: HTRF/ADP-Glo kinase selectivity panel. The format is biochemical. To be noted: 500 nM, read-out: 1D228(%inhibition)@500nM. Here is the method: as §1

Data set [1] relates to ASPC1. The data set can be described thus: CCK8 antiproliferative assay. The format is cell-based. The settings on record: Homo sapiens; ASPC1, CCK8, 72 h; read-out: IC50, cell proliferation. As to the method:
(§2) For cytotoxicity assay, the cells grown in the logarithmic phase were seeded into 96-well plates (7 × 10^3 cells/well) for 24 h, then exposed to different concentrations (10, 5, 1, 0.1, 0.01 and 0.001 μM) of the test compounds for 72 h. After attached cells were incubated with CCK8 (Sigma, USA) for another 1–4 h. Then the absorbance at 450 nm was measured using a multifunction microplate reader (Molecular Devices, Flex Station 3), and each experiment was performed at least in triplicate.
A general note: Tetrazolium assays rely on reduction of a dye to a coloured formazan, in cell work by metabolically active cells.

A further data set concerns HS746T. The data set can be described thus: CCK8 antiproliferative assay. It counts as cell-based. To be noted: Homo sapiens; HS746T, CCK8, 72 h; read-out: IC50, cell proliferation. As to the method:
as §2

In data set [2] the test system is MHCC97H. The data set can be described thus: CCK8 antiproliferative assay. The format is cell-based. To be noted: Homo sapiens, CCK-8, 72 h, read-out: IC50, cell proliferation. Here is the method: as §2
The subject of a further data set is MKN45. The data set can be described thus: CCK8 antiproliferative assay. It counts as cell-based. The settings on record: Homo sapiens, MKN-45; MKN45, CCK-8, 72 h; read-out: IC50, cell proliferation. Here is the method: as §2
Data set [3] concerns ASPC1. The data set can be described thus: Transwell migration assay. It counts as cell-based, human. As to the method:
(§3) Migration assay was performed using an 8 μm-pore Boyden chamber (24-well, #353097, Corning, NY, USA). Treated with 1, 5, and 10 nM 1D228 for 48 h. A total of 5 × 10^4 cells were seeded in serum-free medium in the top chamber and allowed to migrate for 48 h toward the bottom chamber containing 10% fetal bovine serum medium. Cells were fixed and permeabilized with cold 70% ethanol and methanol and stained with 0.4% crystal violet. The average number of migrating cells was evaluated from at least four independent microscope fields.

Data set [4] concerns MHCC97H. The data set can be described thus: Transwell migration assay. To be noted: transwell, 1, 5 and 10 nM. It counts as cell-based, human. As to the method:
as §3

In data set [5] the test system is phosphorylated c-Met in MHCC97H cells. The data set can be described thus: Western blot of phosphorylated c-Met. It counts as cell-based, human. The settings on record: concentration as low as 1 nM. Here is the method:
(§4) Proteins (25–50 ug/lane) were separated on a 4–12% Bis-Tris NuPAGE gel and blotted onto a PVDF membrane (FluoroTrans; VWR). […] Horseradish peroxidase-conjugated secondary antibodies were from Cell Signaling. Proteins were visualized by enhanced chemiluminescence (Millipore) on ChemiDoc camera (Bio-Rad) and protein expression levels were quantified using the lmageJ software. Full anduncropped western blots are presented in Supplemental File.

For data set [6], the system named is phosphorylated c-Met in MKN45 cells. The data set can be described thus: Western blot of phosphorylated c-Met. The format is cell-based, human. The settings on record: MKN45, concentration as low as 1 nM. As to the method: as §4
For orientation: A western blot detects proteins with antibodies after separation by electrophoresis.

Data set [7] is described as follows: Hematoxylin and eosin histology of major tissues. It counts as in vivo. To be noted: following various treatments. Here is the method: Female and male Kunming mice (36 mice each, 18 ~ 25 g) were purchased and housed at the SPF (Beijing) Biotechnology Co. in pathogen-free condition, maintained at constant room temperature and fed a standard rodent chow and water. The mice were randomly divided into experimental group and control group. […]. The heart, liver, lung and kidney of mice in the 750 mg/kg dose group were taken and fixed for HE staining.

The test system of a further data set is Cyclin D1. The data set can be described thus: Western blot of Cyclin D1. It counts as cell-based. The settings on record: 5 nM and 10 nM. As to the method: as §4

What is called inhibition is the relative decrease from the control value, in per cent.

T1 sequence (P30530 26-894): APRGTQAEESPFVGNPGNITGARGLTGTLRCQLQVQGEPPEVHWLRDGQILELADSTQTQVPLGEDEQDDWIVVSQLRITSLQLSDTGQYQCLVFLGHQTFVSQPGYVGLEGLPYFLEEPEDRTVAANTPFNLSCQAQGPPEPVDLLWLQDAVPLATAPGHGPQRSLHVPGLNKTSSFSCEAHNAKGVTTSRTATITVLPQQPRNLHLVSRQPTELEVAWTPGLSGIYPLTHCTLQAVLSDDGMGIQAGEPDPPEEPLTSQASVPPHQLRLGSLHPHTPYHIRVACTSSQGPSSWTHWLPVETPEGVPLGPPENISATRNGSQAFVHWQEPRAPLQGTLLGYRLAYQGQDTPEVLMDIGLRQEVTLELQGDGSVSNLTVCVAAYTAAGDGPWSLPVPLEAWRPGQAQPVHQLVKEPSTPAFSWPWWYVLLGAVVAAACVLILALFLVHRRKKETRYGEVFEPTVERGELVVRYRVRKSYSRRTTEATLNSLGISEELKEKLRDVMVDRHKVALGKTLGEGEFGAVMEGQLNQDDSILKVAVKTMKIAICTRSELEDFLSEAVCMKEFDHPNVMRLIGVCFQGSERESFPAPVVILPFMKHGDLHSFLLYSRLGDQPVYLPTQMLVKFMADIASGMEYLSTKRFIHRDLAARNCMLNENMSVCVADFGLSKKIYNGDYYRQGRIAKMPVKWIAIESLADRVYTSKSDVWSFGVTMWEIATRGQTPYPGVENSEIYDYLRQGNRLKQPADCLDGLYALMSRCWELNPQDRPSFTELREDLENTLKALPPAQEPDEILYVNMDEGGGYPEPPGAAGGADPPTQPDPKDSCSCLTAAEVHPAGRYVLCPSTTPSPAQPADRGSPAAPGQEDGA
T10 sequence (P52333 whole entry): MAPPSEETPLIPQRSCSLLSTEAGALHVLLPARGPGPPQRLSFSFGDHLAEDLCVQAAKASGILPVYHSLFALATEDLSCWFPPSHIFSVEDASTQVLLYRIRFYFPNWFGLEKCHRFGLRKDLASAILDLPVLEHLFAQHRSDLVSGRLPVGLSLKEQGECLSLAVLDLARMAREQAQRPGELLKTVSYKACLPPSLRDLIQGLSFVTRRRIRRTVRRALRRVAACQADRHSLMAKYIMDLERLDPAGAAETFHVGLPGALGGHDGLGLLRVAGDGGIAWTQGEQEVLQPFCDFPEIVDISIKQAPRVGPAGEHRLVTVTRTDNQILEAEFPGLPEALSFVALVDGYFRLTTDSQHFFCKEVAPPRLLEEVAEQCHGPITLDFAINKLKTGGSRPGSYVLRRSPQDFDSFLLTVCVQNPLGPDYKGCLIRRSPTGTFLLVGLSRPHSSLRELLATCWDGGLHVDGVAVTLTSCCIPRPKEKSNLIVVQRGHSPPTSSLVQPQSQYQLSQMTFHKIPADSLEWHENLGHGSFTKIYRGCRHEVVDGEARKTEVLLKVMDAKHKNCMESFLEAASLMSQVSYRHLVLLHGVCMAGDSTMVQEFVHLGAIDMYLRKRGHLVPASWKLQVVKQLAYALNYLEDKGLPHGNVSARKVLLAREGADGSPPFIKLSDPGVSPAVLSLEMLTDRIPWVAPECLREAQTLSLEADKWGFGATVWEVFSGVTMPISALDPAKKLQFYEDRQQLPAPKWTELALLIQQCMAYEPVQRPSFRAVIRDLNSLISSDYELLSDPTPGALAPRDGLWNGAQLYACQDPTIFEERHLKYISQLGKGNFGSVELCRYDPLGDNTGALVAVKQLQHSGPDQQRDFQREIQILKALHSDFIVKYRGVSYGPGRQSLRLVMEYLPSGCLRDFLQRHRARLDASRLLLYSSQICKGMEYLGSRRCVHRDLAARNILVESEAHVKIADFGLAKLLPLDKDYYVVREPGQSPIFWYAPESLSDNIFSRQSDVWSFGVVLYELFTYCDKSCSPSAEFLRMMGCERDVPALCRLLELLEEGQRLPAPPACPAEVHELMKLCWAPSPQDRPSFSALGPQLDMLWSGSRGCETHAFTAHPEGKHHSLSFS

On to `[2H][C@@](C)(c1cccc(-c2ncc(OCC3CCN(C)CC3)cn2)c1)n1nc(-c2cccc(C#N)c2)ccc1=O` [1D228], for which the inhibition at 0.5 µM at AXL was 89.2%; on BTK, -3.81%; at EGFR it was 1.17%; on EPHA5 it was 3.74%; at EPHB2, -3.54%; on EPHB3, 5.68%. Also, the inhibition at 0.5 µM is -9.58% at FAK; 1.72% on FGFR1; 3.88% on IRR; 0.193% at JAK3; 7.05% at ROS1; 2.47% at SYK. Further, the inhibition at 0.5 µM at TYRO3 was 4.2%; at ZAP70, -0.66%. The IC50 came to 1330 nM in the data set on ASPC1 [1], 890 nM in the data set on HS746T, 4.3 nM in the data set with MHCC97H [2] and 1 nM in the data set with MKN45. Moreover, the “Cells blocked from migrating” value in the data set with ASPC1 [3] and in the data set on MHCC97H [4] was 50–80% in each case. Further, the “Phosphorylated c-Met level” value in data set [5] and in [6] was “significant reduction” in each case. Also, in data set [7], the “Toxicity in H&E-stained heart, liver, lung and kidney” value is on record as “no evidence of toxicity”. In addition, the “Cyclin D1 expression” value in the data set with Cyclin D1 was “substantially inhibited”.
